Measured values: patent US20040170705A1, “Compositions and methods for non-insulin glucose uptake” (priority 2001, published 2004)
Entries after “also recorded” stand apart in the source; their conditions may differ.

Experiments:
[1] = system: skeletal muscle cells; details: cited from earlier work
[2] = system: L6 muscle cells; assay: glucose uptake in L6 muscle cells (2-NBDG fluorescence); format: cell-based
Method: The permeate portion of GMM was tested for glucose uptake in L6 muscle cells. L6 cells were grown as monolayers in Dulbecco's modified Eagle's medium (DMEM) containing 1 mM glutamine, 1 mM pyruvate and 25 mM glucose. The medium was supplemented with 5% fetal calf serum (FCS). Experiments were undertaken in 48-well plates seeded from pre-confluent flasks with 50 000 cells per well. The cells were grown to confluence and the medium was changed to DMEM containing 0.5% FCS and 2.5 mM glucose (L6 Myo Medium) for at least 76 hrs to induce differentiation of L6 cells and formation of L6 myotubes. Myotubes were then incubated with test substances for 30 minutes—Protocol SMM, or in Dulbecco's PBS supplemented with 20 mM Hepes and 2 mM glucose without serum—Serum-free Medium (SFM) Protocol as described by Fryer et al. ((Activation of glucose transport by AMP-activated protein kinase via stimulation of Nitric oxide synthase, Diabetes, 49(12), 1978-85, 2000, Fryer LGD, et al).
Next, 30 uM of 2-NBDG was added for 2 minutes at 22C. Subsequently, cell culture medium was removed and cells were washed twice with cold DPBS. Then, cells were lysed in 0.5% SDS. Fluorescence was measured at 466/542 nm (excitation/emission) using 100 ul of cell lysate in 2 ml of water.
Cells were cultured, and treated in L6 Myo Medium (SSM)—SSM Protocol or in serum-free medium (SFM-DPBS containing 20 mM Hepes, 2 mM glucose)—SFM Protoci as described by Fryer et al. Glucose uptake was measured by adding 30 uM of 2-NBDG for 2′ at 22C. Experiments were performed in duplicates.
L-NMMA has been used in the experiment to verify whether GMM-induced glucose transport in L6 cells is or is not inhibited by NOS inhibitors, thus mimicking AICAR—induced mechanism of increased glucose transport. Fryer's experimental set up was adopted, consisting of pre-treatment of cells with inhibitor for 30 minutes in DPBS and after that with agonists like AICAR or in our case GMM for next 30 minutes at 37C before performing glucose uptake.

Molecule: NC(=O)c1ncn([C@@H]2O[C@H](COP(=O)(O)O)[C@@H](O)[C@H]2O)c1N [AICAR, 5′-aminoimidazole 4-carboxamide 1-ribonucleotide]
- effect on glucose uptake by pharmacological activation of AMPK ([1]; skeletal muscle): increase in glucose uptake

Molecule: insulin: insulin used to treat L6 cells
- glucose uptake increase ([2]; culture medium supplemented with 0.5% FCS (SSM), by average): 100-120%
- glucose uptake increase ([2]; serum-free medium (DPBS)): 40-50%

Molecule: NC(=O)c1[nH]cnc1N [AICA]
- effect on glucose uptake ([2]; L6 cells, 30 minutes treatment, uptake 2 minutes at 22C): stimulation

Molecule: CC(=O)O.CNC(=N)NCCC[C@H](N)C(=O)O [L-NMMA, NG-methyl-L-arginine, acetate salt]
- effect on permeate/GMM-induced glucose uptake ([2]; L-NMMA 300 uM pre-treatment 30 minutes in DPBS, acetate salt): inhibits; also recorded: blocks
- effect on AICA-stimulated glucose uptake ([2]; pre-treatment with L-NMMA 30 minutes in DPBS, then AICA 30 minutes): inhibition
- effect on the increase of glucose transport after activation of AMPK ([1]; NOS inhibitors, skeletal muscle cells): completely blocks
